Reference: ChEMBL document CHEMBL1914436, “Synthesis and in vivo evaluation of cyclic diaminopropane BACE-1 inhibitors” (Bioorg Med Chem Lett, 2011)
Blank lines part the entries; values can stand above or below the molecule they belong to. Activity calls are given as the source filed them. The calls are words filed in the database; no cut-off is given here.

How the values were obtained:
Beta-secretase 1 [1] = biological target: T1, Beta-secretase 1 (Homo sapiens, UniProt P56817); assay: Inhibition of BACE-1 in human HEK293 cells overexpressing APP 695 swedish mutation assessed as inhibition of amyloid beta (1 to 40) production by immunoprecipitation assay; assay type: cell-based
Beta-secretase 1 [2] = biological target: T1, Beta-secretase 1; assay: Displacement of [3H]BMS-599240 from recombinant human BACE-1
Beta-secretase 1 [3] = biological target: T1, Beta-secretase 1; assay: Inhibition of BACE-1 in human HEK293 cells overexpressing APP 695 swedish mutation assessed as inhibition of amyloid beta (1 to 40) production by ELISA method; assay type: cell-based
Plasma [4] = assay: Antialzheimer activity in ip dosed rat assessed as reduction in plasma amyloid beta (1 to 40) level measured at 5 hrs post-dose; assay type: functional
Plasma [5] = assay: Drug level in rat plasma at 30 mg/kg, ip; assay type: ADME, organism-based; parameters: dose 30 mg/kg, route intraperitoneal; conditions: in vivo, read-out: Drug uptake
[6] = Fraction unbound in rat plasma at 30 mg/kg, ip; assay type: ADME, organism-based; parameters: dose 30 mg/kg, route intraperitoneal
Rattus norvegicus [7] = assay: Antialzheimer activity in rat assessed as reduction in brain amyloid beta (1 to 40) level up to 100 mg/kg, ip measured at 5 hrs post-dose; assay type: functional, organism-based; parameters: dose 100 mg/kg
[8] = Ratio of drug level in brain to plasma in rat at 100 mg/kg, ip at 5 hrs; assay type: ADME, organism-based; parameters: dose 100 mg/kg, route intraperitoneal; conditions: brain and plasma, read-out: BPR
Brain [9] = assay: Drug level in rat brain at 100 mg/kg, ip; assay type: ADME, organism-based; parameters: dose 100 mg/kg, route intraperitoneal; conditions: in vivo, read-out: Drug uptake
[10] = Permeability from apical to basolateral side of human Caco2 cells; assay type: ADME, cell-based; conditions: Caco-2, read-out: permeability
[11] = Permeability from basolateral to apical side of human Caco2 cells; assay type: ADME, cell-based; conditions: Caco-2, read-out: permeability
[12] = Efflux ratio of permeability from basolateral to apical side to apical to basolateral side of human Caco2 cells; assay type: ADME, cell-based; conditions: Caco-2
Beta-secretase 1 [13] = biological target: T1, Beta-secretase 1; assay: Inhibition of BACE-1
[14] = Fraction unbound in sc dosed mouse plasma; assay type: ADME, organism-based
[15] = Fraction unbound in sc dosed rat plasma; assay type: ADME, organism-based
Plasma [16] = assay: Total plasma concentration in rat at 3 mg/kg, sc; assay type: ADME, organism-based; parameters: dose 3 mg/kg, route subcutaneous; conditions: in vivo
Plasma [17] = assay: Total plasma concentration in rat at 10 mg/kg, sc; assay type: ADME, organism-based; parameters: dose 10 mg/kg, route subcutaneous; conditions: in vivo
Plasma [18] = assay: Total plasma concentration in rat at 100 mg/kg, sc; assay type: ADME, organism-based; parameters: dose 100 mg/kg, route subcutaneous; conditions: in vivo
Rattus norvegicus [19] = assay: Antialzheimer activity in rat plasma assessed as amyloid beta (1 to 40) level at 3 mg/kg, sc relative to vehicle treated control; assay type: functional; conditions: route subcutaneous
Rattus norvegicus [20] = assay: Antialzheimer activity in rat plasma assessed as amyloid beta (1 to 40) level at 10 mg/kg, sc relative to vehicle treated control; assay type: functional; conditions: route subcutaneous
Rattus norvegicus [21] = assay: Antialzheimer activity in rat plasma assessed as amyloid beta (1 to 40) level at 100 mg/kg, sc relative to vehicle treated control; assay type: functional; conditions: route subcutaneous
Rattus norvegicus [22] = assay: Antialzheimer activity in rat plasma assessed as reduction in amyloid beta (1 to 40) level at 3 mg/kg, sc relative to vehicle treated control; assay type: functional; parameters: scale not given: the % may be the effect or the level left; conditions: route subcutaneous
Brain [23] = assay: Drug level in rat brain at 3 mg/kg, sc; assay type: ADME, organism-based; parameters: dose 3 mg/kg, route subcutaneous; conditions: in vivo, read-out: Drug uptake
Brain [24] = assay: Drug level in rat brain at 10 mg/kg, sc; assay type: ADME, organism-based; parameters: dose 10 mg/kg, route subcutaneous; conditions: in vivo, read-out: Drug uptake
Brain [25] = assay: Drug level in rat brain at 100 mg/kg, sc; assay type: ADME, organism-based; parameters: dose 100 mg/kg, route subcutaneous; conditions: in vivo, read-out: Drug uptake
Rattus norvegicus [26] = assay: Antialzheimer activity in rat brain assessed as amyloid beta (1 to 40) level at 3 mg/kg, sc relative to vehicle treated control; assay type: functional; conditions: route subcutaneous
Rattus norvegicus [27] = assay: Antialzheimer activity in rat brain assessed as amyloid beta (1 to 40) level at 10 mg/kg, sc relative to vehicle treated control; assay type: functional; conditions: route subcutaneous
Rattus norvegicus [28] = assay: Antialzheimer activity in rat brain assessed as amyloid beta (1 to 40) level at 100 mg/kg, sc relative to vehicle treated control; assay type: functional; conditions: route subcutaneous
[29] = Ratio of drug level in brain to plasma in rat at 3 mg/kg, sc; assay type: ADME, organism-based; parameters: dose 3 mg/kg, route subcutaneous; conditions: brain and plasma, read-out: BPR
[30] = Ratio of drug level in brain to plasma in rat at 10 mg/kg, sc; assay type: ADME, organism-based; parameters: dose 10 mg/kg, route subcutaneous; conditions: brain and plasma, read-out: BPR
[31] = Ratio of drug level in brain to plasma in rat at 100 mg/kg, sc; assay type: ADME, organism-based; parameters: dose 100 mg/kg, route subcutaneous; conditions: brain and plasma, read-out: BPR
Mus musculus [32] = assay: Antialzheimer activity in wild type mouse brain assessed as reduction in amyloid beta (1 to 40) level up to 100 mg/kg, sc; assay type: functional, organism-based; parameters: dose 100 mg/kg
Mus musculus [33] = assay: Antialzheimer activity in sc dosed P-gp knockout mouse plasma assessed as reduction in amyloid beta (1 to 40) level after 5 hrs by ELISA; assay type: functional
Mus musculus [34] = assay: Antialzheimer activity in sc dosed P-gp knockout mouse brain assessed as reduction in amyloid beta (1 to 40) level after 5 hrs by ELISA; assay type: functional

T1 sequence (P56817 whole entry): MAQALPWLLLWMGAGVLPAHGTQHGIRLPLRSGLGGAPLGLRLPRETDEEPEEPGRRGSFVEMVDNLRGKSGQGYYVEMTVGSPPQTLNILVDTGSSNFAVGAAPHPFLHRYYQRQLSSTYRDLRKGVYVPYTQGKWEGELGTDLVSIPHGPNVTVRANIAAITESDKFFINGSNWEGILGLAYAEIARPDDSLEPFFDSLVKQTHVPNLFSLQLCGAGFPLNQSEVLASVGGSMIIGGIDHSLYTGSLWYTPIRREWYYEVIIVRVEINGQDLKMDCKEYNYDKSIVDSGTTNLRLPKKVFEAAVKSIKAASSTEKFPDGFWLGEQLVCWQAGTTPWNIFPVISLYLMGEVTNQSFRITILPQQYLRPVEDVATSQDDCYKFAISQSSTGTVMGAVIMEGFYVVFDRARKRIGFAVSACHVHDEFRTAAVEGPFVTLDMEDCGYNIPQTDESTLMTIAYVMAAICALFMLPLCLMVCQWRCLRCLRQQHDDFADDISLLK

Compound: CCCC[C@@H]1CCN([C@@H](C)C(=O)N[C@@H](Cc2cc(F)cc(F)c2)[C@H](O)[C@H]2C[C@@H](S(=O)(=O)CCC)CN2)C1=O
- IC50 (Beta-secretase 1 [1]): > 330 nM

Compound: CCCC[C@H]1CCN([C@@H](CCc2ccccc2)C(=O)N[C@@H](Cc2cc(F)cc(F)c2)[C@H](O)[C@H]2Cc3ccccc3CN2)C1=O
- IC50 (Beta-secretase 1 [13]): 1000 nM

Compound: CC[C@@H](C)[C@H](N)C(=O)N[C@@H](CCc1ccccc1)C(=O)N[C@@H](CC(C)C)[C@@H](O)C[C@@H](C)C(=O)NCCCCc1ccccc1
- IC50 (Beta-secretase 1 [13]): 88 nM

Compound: CCC(C)[C@@]1(N)CCN([C@@H](CCc2ccccc2)C(=O)N[C@@H](CC(C)C)[C@@H](O)C[C@@H](C)C(=O)NCCCCc2ccccc2)C1=O (stereo partly drawn)
- IC50 (Beta-secretase 1 [13]): 141 nM

Compound: CCC(C)[C@@]1(NC(C)=O)CCN([C@@H](CCc2ccccc2)C(=O)N[C@@H](Cc2ccccc2)[C@H](O)CNCc2cccc(OC)c2)C1=O (stereo partly drawn)
- IC50 (Beta-secretase 1 [2]): 5 nM
- IC50 (Beta-secretase 1 [3]): 11 nM

Compound: CCCCN(C)C(=O)n1cc(C(=O)N[C@@H](Cc2cc(F)cc(F)c2)[C@H](O)[C@H]2Cc3ccccc3CN2)c2cccnc21
- IC50 (Beta-secretase 1 [13]): 1200 nM

Compound: CCCC[C@H]1CCN([C@@H](C)C(=O)N[C@@H](Cc2cc(F)cc(F)c2)[C@H](O)[C@H]2Cc3ccccc3CN2)C1=O
- IC50 (Beta-secretase 1 [13]): 1600 nM

Compound: CCCN(CCC)C(=O)c1cc(C(=O)N[C@@H](Cc2cc(F)cc(F)c2)[C@H](O)[C@H]2C[C@@H](S(=O)(=O)CCC)CN2)cc(-c2ncco2)c1
- IC50 (Beta-secretase 1 [1]): 68 nM

Compound: CCCN(CCC)C(=O)c1cccc(C(=O)N[C@@H](Cc2cc(F)cc(F)c2)[C@H](O)[C@H]2Cc3ccccc3CN2)c1 (stereo in doubt; 15b)
- IC50 (Beta-secretase 1 [13]): 1600 nM

Compound: CCCN(CCC)C(=O)c1cccc(C(=O)N[C@@H](Cc2cc(F)cc(F)c2)[C@H](O)[C@H]2Cc3ccccc3CN2)c1 (stereo in doubt; 15a)
- IC50 (Beta-secretase 1 [13]): 1100 nM

The next lines start with results.

- IC50 (Beta-secretase 1 [2]): 2 nM
- IC50 (Beta-secretase 1 [3]): 3 nM
- concentration (Plasma [5]): 3700 nM
- fraction unbound [6]: 0.011
- Kp at 5 h [8]: < 0.05
- concentration (Brain [9]): 113 nM
- Papp A→B [10]: 7.5 ×10⁻⁶ cm/s
- Papp B→A [11]: 11.4 ×10⁻⁶ cm/s
- efflux ratio [12]: 1.5
Compound: CCC(C)[C@@]1(NC(C)=O)CCN([C@@H](CCc2ccccc2)C(=O)N[C@@H](Cc2cc(F)cc(F)c2)[C@H](O)CNCc2cccc(OC)c2)C1=O (stereo partly drawn)
- Activity (Plasma [4]): Dose-dependent effect
- ED50 (Plasma [4]): 30 mg/kg
- Activity (Rattus norvegicus [7]): inactive

- IC50 (Beta-secretase 1 [13]): 54 nM
- IC50 (Beta-secretase 1 [1]): 110 nM
Compound: CCC(C)[C@@]1(NC(C)=O)CCN([C@@H](CCc2ccccc2)C(=O)N[C@@H](Cc2cc(F)cc(F)c2)[C@H](O)C2Cc3ccccc3CN2)C1=O (stereo partly drawn)

- Papp A→B [10]: < 1.5 ×10⁻⁶ cm/s
- Papp B→A [11]: 5.8 ×10⁻⁶ cm/s
- efflux ratio [12]: > 4
- IC50 (Beta-secretase 1 [1]): 5 nM
- fraction unbound [14]: 0.24
- fraction unbound [15]: 0.3
- concentration (Plasma [16]): 160 nM
- concentration (Plasma [17]): 740 nM
- concentration (Plasma [18]): 5800 nM
- concentration (Brain [23]): 46 nM
- concentration (Brain [24]): 78 nM
- concentration (Brain [25]): 260 nM
- Kp [29]: 0.32
- Kp [30]: 0.11
- Kp [31]: 0.05
Compound: CCCS(=O)(=O)[C@H]1CN[C@@H]([C@@H](O)[C@H](Cc2cc(F)cc(F)c2)NC(=O)[C@H](CCc2ccccc2)N2CC[C@](NC(C)=O)(C(C)CC)C2=O)C1 (stereo partly drawn)
- Activity (Rattus norvegicus [19]): 28%
- Activity (Rattus norvegicus [20]): 10%
- Activity (Rattus norvegicus [21]): 15%
- Activity (Rattus norvegicus [22]): 72%
- Activity (Rattus norvegicus [26]): 85%
- Activity (Rattus norvegicus [27]): 92%
- Activity (Rattus norvegicus [28]): 91%
- Activity (Mus musculus [32]): inactive
- ED50 (Mus musculus [33]): 30 mg/kg
- ED50 (Mus musculus [34]): 50 mg/kg

- IC50 (Beta-secretase 1 [13]): 600 nM
Compound: CCC(C)[C@@]1(NC(C)=O)CCN([C@@H](CCc2ccccc2)C(=O)N[C@@H](Cc2cc(F)cc(F)c2)[C@H](O)[C@@H]2Cc3ccccc3CN2)C1=O (stereo partly drawn)

- IC50 (Beta-secretase 1 [13]): 8 nM
- IC50 (Beta-secretase 1 [1]): 10 nM
Compound: CC(=O)N[C@]1(CC(C)C)CCN([C@@H](CCc2ccccc2)C(=O)N[C@@H](Cc2cc(F)cc(F)c2)[C@H](O)C2Cc3ccccc3CN2)C1=O (stereo partly drawn)

- IC50 (Beta-secretase 1 [1]): 3 nM
Compound: CCC(C)[C@@]1(NC(C)=O)CCN([C@@H](CCc2ccccc2)C(=O)N[C@@H](Cc2cc(F)cc(F)c2)[C@H](O)[C@H]2C[C@@H](S(=O)(=O)Cc3ccc(F)cc3)CN2)C1=O (stereo partly drawn)

- IC50 (Beta-secretase 1 [13]): 17 nM
- IC50 (Beta-secretase 1 [1]): 140 nM
Compound: CCCOc1cccc2c1CNC([C@@H](O)[C@H](Cc1cc(F)cc(F)c1)NC(=O)[C@H](CCc1ccccc1)N1CC[C@](NC(C)=O)(C(C)CC)C1=O)C2 (stereo partly drawn)

- IC50 (Beta-secretase 1 [13]): 4 nM
- IC50 (Beta-secretase 1 [1]): 20 nM
Compound: CCC(C)[C@@]1(NC(C)=O)CCN([C@@H](CCc2ccccc2)C(=O)N[C@@H](Cc2cc(F)cc(F)c2)[C@H](O)C2Cc3cccc(OC)c3CN2)C1=O (stereo partly drawn)

- IC50 (Beta-secretase 1 [1]): 15 nM
Compound: CCCS[C@H]1CN[C@@H]([C@@H](O)[C@H](Cc2cc(F)cc(F)c2)NC(=O)[C@H](CCc2ccccc2)N2CC[C@](NC(C)=O)(C(C)CC)C2=O)C1 (stereo partly drawn)

- IC50 (Beta-secretase 1 [1]): 45 nM
Compound: CCCS(=O)(=O)[C@@H]1CN[C@@H]([C@@H](O)[C@H](Cc2cc(F)cc(F)c2)NC(=O)[C@H](CCc2ccccc2)N2CC[C@](NC(C)=O)(C(C)CC)C2=O)C1 (stereo partly drawn)

- IC50 (Beta-secretase 1 [13]): 140 nM
Compound: CCC(C)[C@@]1(NC(C)=O)CCN([C@@H](CCc2ccccc2)C(=O)N[C@@H](Cc2cc(F)cc(F)c2)[C@H](O)[C@@H]2Cc3cccc(OC)c3CN2)C1=O (stereo partly drawn)

- IC50 (Beta-secretase 1 [1]): 12 nM
Compound: CCC(C)[C@@]1(NC(C)=O)CCN([C@@H](CCc2ccccc2)C(=O)N[C@@H](Cc2cc(F)cc(F)c2)[C@H](O)[C@H]2C[C@@H](S(=O)(=O)c3ccccc3)CN2)C1=O (stereo partly drawn)

- IC50 (Beta-secretase 1 [13]): 870 nM
Compound: CCC(C)[C@@]1(NC(C)=O)CCN([C@@H](CCc2ccccc2)C(=O)N[C@@H](Cc2cc(F)cc(F)c2)[C@H](O)C2Cc3cccc(O)c3CN2)C1=O (stereo partly drawn)
